ChEMBL document CHEMBL1201862, “PubChem BioAssay data set” (2004)
Blank lines part the entries; values can stand above or below the molecule they belong to. Active and inactive are the calls of the source.

Columns and labels:
[1] = target: T1, Voltage-gated N-type calcium channel alpha-1B subunit/Amyloid beta A4 precursor protein-binding family A member 1 (Homo sapiens, UniProt Q00975+Q02410); test: disruptors of Mint-PDZ/N-type channel peptide interaction – biochemical, HTRF, SAR follow-up (AID 2489); assay type: functional
T1 sequence (Q00975 whole entry): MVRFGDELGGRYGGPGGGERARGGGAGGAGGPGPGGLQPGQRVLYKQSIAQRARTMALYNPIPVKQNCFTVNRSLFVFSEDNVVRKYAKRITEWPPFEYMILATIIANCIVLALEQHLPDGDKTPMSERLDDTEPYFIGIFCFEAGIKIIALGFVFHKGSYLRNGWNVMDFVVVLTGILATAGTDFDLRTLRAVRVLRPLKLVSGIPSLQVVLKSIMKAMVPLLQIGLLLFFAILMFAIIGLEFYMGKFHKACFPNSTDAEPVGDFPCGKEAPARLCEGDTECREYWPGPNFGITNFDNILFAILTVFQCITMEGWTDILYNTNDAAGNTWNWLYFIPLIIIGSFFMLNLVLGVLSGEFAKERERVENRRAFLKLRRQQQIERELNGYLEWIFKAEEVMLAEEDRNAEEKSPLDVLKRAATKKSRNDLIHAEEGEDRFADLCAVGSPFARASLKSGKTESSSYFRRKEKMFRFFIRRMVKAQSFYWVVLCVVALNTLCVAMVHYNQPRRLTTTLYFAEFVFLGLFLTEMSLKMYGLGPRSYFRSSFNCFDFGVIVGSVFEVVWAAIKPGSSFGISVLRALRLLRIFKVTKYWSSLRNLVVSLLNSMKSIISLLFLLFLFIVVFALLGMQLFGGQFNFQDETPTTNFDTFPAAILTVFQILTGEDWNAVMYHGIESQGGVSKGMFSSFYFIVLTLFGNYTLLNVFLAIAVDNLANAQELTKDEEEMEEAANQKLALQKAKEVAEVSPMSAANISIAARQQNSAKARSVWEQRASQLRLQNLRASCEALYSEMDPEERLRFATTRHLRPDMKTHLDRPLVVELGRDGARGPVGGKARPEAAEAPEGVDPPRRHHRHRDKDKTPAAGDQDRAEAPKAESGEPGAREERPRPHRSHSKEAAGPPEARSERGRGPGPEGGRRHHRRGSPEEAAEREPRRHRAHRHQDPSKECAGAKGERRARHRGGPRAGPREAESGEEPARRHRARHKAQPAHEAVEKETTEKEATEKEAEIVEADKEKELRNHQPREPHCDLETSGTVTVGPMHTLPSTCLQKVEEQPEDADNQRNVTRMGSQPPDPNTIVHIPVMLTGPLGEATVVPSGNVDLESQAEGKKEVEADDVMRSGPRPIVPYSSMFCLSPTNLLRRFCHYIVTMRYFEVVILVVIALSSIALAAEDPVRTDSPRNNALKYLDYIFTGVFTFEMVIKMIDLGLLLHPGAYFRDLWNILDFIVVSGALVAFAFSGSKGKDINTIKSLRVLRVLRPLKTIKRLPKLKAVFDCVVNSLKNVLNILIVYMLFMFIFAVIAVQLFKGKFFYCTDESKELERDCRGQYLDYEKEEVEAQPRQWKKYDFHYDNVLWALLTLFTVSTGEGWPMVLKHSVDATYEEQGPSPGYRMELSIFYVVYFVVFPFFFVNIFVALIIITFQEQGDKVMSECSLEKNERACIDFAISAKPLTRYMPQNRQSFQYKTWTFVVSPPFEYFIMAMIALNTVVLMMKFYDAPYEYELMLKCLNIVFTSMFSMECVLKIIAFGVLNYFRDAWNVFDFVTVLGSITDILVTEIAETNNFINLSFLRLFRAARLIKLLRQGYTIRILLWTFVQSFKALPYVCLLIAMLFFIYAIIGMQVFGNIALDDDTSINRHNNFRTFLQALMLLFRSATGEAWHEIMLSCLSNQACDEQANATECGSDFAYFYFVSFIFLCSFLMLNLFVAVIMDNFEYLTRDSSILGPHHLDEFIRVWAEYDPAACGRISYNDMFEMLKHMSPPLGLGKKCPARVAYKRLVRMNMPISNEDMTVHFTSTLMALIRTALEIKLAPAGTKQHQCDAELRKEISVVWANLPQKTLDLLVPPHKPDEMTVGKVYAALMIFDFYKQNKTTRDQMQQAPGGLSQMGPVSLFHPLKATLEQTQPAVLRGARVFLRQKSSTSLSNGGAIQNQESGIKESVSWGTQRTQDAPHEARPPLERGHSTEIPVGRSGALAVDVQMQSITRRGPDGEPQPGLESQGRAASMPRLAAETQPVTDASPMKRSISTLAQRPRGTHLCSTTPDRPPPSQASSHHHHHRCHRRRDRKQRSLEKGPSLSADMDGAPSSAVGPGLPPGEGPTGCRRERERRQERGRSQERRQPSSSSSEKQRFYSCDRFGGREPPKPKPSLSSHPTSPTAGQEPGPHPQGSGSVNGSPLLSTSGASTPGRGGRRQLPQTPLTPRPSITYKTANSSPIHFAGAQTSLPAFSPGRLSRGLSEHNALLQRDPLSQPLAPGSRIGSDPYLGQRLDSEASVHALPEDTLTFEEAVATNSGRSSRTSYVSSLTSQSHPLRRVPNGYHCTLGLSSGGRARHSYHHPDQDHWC
T1 sequence (Q02410 whole entry): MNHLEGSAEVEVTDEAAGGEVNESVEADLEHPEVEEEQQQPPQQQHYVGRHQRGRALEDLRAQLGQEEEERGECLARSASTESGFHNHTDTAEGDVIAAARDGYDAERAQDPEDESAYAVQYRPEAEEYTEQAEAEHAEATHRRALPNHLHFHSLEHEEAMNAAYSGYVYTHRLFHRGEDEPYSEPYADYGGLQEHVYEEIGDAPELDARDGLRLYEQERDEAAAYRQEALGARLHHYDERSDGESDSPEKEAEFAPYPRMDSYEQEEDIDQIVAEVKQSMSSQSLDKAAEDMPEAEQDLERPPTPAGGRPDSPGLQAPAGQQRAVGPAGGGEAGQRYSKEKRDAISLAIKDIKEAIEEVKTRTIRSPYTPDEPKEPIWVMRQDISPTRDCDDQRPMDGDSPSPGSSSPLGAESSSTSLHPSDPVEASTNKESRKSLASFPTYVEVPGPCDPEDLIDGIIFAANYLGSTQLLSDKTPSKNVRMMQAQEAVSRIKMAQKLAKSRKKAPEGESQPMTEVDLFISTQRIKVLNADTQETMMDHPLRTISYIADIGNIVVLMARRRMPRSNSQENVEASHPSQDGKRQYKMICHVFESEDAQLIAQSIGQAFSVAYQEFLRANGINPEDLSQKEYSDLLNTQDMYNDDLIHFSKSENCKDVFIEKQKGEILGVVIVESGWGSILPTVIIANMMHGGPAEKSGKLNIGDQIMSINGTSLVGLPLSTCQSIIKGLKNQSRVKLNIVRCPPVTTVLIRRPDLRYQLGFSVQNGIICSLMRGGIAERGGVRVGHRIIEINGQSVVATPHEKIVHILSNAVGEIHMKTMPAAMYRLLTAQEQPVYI

[2] = target: T1, Voltage-gated N-type calcium channel alpha-1B subunit/Amyloid beta A4 precursor protein-binding family A member 1; test: disruptors of Mint-PDZ/N-type channel peptide interaction – biochemical, HTRF, set 2, SAR follow-up (AID 434980); assay type: functional
SUMO E1/E2 = SUMO E1/E2 (Homo sapiens, UniProt P63279+Q9UBE0+Q9UBT2); test: SAR analysis of SUMOylation using HTRF in an in-Vitro dose response assay. [Related pubchem assays (depositor defined):AID2006, AID2011, AID2018, AID2069, AID2658]; assay type: functional
Chain of SUMO E1/E2 (Q9UBE0 whole entry): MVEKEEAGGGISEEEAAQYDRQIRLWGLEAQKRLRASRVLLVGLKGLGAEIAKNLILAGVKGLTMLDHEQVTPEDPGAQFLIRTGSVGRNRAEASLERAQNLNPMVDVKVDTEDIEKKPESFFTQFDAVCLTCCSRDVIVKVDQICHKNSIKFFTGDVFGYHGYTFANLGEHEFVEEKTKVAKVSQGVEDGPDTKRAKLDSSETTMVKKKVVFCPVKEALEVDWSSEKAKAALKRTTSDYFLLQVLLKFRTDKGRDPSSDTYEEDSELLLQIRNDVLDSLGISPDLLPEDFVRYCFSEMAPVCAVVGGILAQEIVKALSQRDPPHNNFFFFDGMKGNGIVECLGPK
Chain of SUMO E1/E2 (Q9UBT2 whole entry): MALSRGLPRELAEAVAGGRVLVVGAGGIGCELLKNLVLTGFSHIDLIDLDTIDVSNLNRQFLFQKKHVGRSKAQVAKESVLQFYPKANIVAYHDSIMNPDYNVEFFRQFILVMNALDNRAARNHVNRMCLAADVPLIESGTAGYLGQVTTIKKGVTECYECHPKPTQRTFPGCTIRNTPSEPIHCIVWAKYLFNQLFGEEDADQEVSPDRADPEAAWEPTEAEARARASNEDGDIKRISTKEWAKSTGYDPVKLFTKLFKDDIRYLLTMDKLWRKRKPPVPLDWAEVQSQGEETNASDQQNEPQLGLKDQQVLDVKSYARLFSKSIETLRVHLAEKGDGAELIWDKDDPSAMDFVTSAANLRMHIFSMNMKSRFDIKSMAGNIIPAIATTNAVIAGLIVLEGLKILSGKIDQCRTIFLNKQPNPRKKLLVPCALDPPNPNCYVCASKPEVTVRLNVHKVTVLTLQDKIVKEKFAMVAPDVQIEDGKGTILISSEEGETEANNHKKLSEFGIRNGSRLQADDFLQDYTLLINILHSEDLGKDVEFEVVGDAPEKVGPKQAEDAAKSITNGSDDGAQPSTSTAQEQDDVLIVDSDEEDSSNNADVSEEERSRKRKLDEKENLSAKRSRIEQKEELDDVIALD
Chain of SUMO E1/E2 (P63279 whole entry): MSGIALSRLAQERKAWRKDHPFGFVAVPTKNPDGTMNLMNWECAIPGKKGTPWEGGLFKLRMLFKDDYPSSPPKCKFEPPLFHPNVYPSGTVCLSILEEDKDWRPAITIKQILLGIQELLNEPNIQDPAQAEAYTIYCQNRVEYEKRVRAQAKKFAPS

[3] = target: Potassium voltage-gated channel subfamily KQT member 2 (Rattus norvegicus, UniProt O88943); test: rat KCNQ2 current potentiators – automated patch clamp, KCNQ2-CHO cells, SAR follow-up (AID 493113); assay type: functional
[4] = target: T2, Intestinal-type alkaline phosphatase (Homo sapiens, UniProt P09923); test: human intestinal alkaline phosphatase activators, dose response, biochemical, luminescence, uHTS hits (AID 463120); assay type: functional
T2 sequence (P09923 whole entry): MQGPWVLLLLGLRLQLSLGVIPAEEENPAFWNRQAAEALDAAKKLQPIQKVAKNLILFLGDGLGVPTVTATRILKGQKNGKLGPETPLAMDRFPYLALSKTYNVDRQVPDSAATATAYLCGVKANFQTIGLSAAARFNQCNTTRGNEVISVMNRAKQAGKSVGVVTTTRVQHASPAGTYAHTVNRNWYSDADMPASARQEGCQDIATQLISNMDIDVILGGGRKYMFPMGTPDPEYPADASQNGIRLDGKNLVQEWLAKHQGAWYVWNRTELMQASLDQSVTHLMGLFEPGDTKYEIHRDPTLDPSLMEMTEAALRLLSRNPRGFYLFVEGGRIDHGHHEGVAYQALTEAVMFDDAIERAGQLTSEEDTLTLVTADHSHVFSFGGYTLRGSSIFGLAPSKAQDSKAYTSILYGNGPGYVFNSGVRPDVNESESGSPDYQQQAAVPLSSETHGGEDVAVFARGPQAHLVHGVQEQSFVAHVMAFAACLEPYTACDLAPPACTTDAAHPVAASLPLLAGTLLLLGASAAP

[5] = target: T3, Alkaline phosphatase, tissue-nonspecific isozyme (Homo sapiens, UniProt P05186); test: activation of tissue-nonspecific alkaline phosphatase – biochemical, TNAP isozyme, human IAP uHTS hits, selectivity assay for human IAP activator project, dose response (AID 488886); assay type: functional;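 further: potency of compounds raising TNAP activity as a selectivity check on IAP activators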
T3 sequence (P05186 whole entry): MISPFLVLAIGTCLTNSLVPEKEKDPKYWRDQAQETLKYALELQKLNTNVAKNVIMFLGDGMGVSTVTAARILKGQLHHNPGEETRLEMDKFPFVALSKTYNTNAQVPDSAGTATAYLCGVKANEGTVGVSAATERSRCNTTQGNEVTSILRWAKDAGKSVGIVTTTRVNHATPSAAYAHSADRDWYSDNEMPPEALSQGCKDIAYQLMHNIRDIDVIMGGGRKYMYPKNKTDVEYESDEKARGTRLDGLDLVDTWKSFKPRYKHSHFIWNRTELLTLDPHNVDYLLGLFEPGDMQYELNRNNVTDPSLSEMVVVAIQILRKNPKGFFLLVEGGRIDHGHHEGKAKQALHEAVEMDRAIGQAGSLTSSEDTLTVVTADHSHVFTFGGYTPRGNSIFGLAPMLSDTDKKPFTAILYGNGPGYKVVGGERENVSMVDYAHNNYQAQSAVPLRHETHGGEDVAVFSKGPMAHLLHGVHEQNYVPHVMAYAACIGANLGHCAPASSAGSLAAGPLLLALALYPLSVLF

INS1 = test: INS-1E survival protection against cytokine death – cell-based, luminescence, retest, dose response (AID 449756); assay type: functional; conditions: Rattus norvegicus;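 further: cell death triggered by IL-1 beta plus TNF-alpha plus IFN-gamma mixture; protective hits raise ATP signal compared with cytokine alone wells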
[6] = target: Intestinal-type alkaline phosphatase (Mus musculus, UniProt P24822); test: PubChem AID 488875; assay type: functional
[7] = target: T2, Intestinal-type alkaline phosphatase; test: activation of human intestinal alkaline phosphatase – biochemical, luminescent, uHTS hits, set 2, dose response (AID 488817); assay type: functional;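 further: potency of activators that raise enzyme activity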
Cytochrome P450 1A2 = target: T4, Cytochrome P450 1A2 (Homo sapiens, UniProt P05177);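 further: PubChem cytochrome P450 panel assay, CYP1A2 panel member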
T4 sequence (P05177 whole entry): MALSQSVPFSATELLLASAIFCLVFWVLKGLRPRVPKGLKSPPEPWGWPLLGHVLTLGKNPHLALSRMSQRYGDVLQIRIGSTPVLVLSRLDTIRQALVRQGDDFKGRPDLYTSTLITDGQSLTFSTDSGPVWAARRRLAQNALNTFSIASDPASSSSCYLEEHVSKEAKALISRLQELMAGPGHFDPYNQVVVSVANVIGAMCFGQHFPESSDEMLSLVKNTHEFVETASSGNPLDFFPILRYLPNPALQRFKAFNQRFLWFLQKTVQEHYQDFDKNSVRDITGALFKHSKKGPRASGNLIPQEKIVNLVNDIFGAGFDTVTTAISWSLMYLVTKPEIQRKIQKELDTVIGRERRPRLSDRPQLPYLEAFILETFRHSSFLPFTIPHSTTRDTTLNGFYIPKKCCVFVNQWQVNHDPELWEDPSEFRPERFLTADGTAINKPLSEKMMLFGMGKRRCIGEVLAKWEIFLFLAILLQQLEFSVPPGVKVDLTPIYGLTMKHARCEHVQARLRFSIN

IC50 [1]: > 56.8 µM (inactive) | IC50 [2]: 5.49 µM (active) | IC50 (SUMO E1/E2): 6.04 µM (active)
Compound: COc1ccc(CNC(=O)COC(=O)c2cc(-c3ccco3)nc3ccccc23)cc1OC

EC50 [3]: 0.6 µM (active)
Compound: O=C(Nc1ccc2ccccc2c1)C1CC2CCC1C2 (stereo not given)

Compound: Cc1ccc(O)c(/C=N/NC(=O)c2[nH]ncc2Br)c1
EC50 [4]: 7.61 µM (active) | EC50 [5]: 49.6 µM (active) | AC50 (INS1): 33.5 µM (active) | EC50 [6]: > 100 µM (inactive) | EC50 [7]: 47.6 µM (active)

AC50 (Cytochrome P450 1A2): inactive
Compound: C[C@@H]1COc2c(N3CCN(C)CC3)c(F)cc3c(=O)c(C(=O)O)cn1c23 [DEXTROFLOXACINE]
